Experimental data reported in patent US9133179B2, “2-methoxy-pyridin-4-yl-derivatives” (Actelion Pharmaceuticals Ltd., priority 2011, dated 2015).

Key:
[1] = system: circulating lymphocytes; assay: Assessment of in vivo efficacy: circulating lymphocytes after oral administration to Wistar rats; parameters: species or system rat; details: Rattus norvegicus, Lymphocyte, normotensive male Wistar rats, compared to vehicle group, read-out: Lymphocyte counts; for change in vivo at 10 mg/kg: 6 h after oral administration of 10 mg/kg
Description: Assessment of In Vivo Efficacy
The efficacy of the compounds of Formula (I) is assessed by measuring the circulating lymphocytes after oral administration of 3 to 30 mg/kg of a compound of Formula (I) to normotensive male Wistar rats. The animals are housed in climate-controlled conditions with a 12 h-light/dark cycle, and have free access to normal rat chow and drinking water. […] Full blood is subjected to hematology using Advia Hematology system (Bayer Diagnostics, Zurich, Switzerland).
All data are presented as mean±SEM. Statistical analyses are performed by analysis of variance (ANOVA) using Statistica (StatSoft) and the Student-Newman-Keuls procedure for multiple comparisons. The null hypothesis is rejected when p<0.05.

[2] = molecular target: T1, human S1P1 (EDG1) receptor (Homo sapiens, UniProt P21453); assay: S1P1 β-arrestin recruitment (Tango) assay to determine EC50 values; assay type: cell-based; details: Tango-EDG1 bla U2OS cells, 16 h incubation
T1 construct: host or cells: U2OS (Tango EDG1-bla U2OS)
T1 sequence (P21453 whole entry): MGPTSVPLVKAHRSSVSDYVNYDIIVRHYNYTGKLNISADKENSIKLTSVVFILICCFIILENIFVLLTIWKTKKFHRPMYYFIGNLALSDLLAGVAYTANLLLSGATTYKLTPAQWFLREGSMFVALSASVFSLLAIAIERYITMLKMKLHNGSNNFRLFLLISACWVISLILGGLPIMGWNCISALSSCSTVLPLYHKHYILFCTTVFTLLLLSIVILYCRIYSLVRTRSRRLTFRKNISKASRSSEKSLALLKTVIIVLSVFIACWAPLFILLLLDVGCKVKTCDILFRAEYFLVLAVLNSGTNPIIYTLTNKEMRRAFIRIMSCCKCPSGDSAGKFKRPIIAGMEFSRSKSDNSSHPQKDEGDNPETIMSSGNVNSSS
From the text: S1P1 β-Arrestin Recruitment (Tango) Assay to Determine EC50 Values
Upon ligand activation, G protein-coupled receptors (GPCR) trigger two pathways that independently transduce signals to the cell: one through heterotrimeric GTP-binding proteins (G proteins) and one through β-arrestins. Agonist-induced GPCRs recruit β-arrestin proteins, which then bind to the carboxy-terminal domain of ligand-activated GPCRs. The amount of β-arrestin recruitment can be used to assess the potency and efficacy of GPCR activating ligands.
To measure the potency and efficacy of compounds as S1P1 (EDG1) receptor agonists, Tango™-EDG1 bla U2OS cells (Invitrogen, USA, Catalog #K1520) are used. The Tango™ GPCR technology is based on GeneBLAzer β-lactamase reporter cell assays, which uses a mammalian-optimized β-lactamase reporter gene (bla) combined with a FRET-enabled substrate. The host cells, U2OS, stably express a human S1P1 (EDG1) receptor/transcription factor (TF) fusion protein. The cells also express a recombinant protease tagged β-arrestin protein, which is recruited to the S1P1 receptor upon ligand stimulation and specifically cleaves the S1P1-TF fusion protein. The released TF activates the β-lactamase (bla) reporter gene. To measure the reporter gene activity, cells are loaded with a fluorescent substrate containing two chemically coupled fluorophores, coumarin and fluorescein. […] In the presence of bla, the chemical bond is cleaved and FRET is inhibited. […] The amount of β-arrestin recruitment is proportional to the increase in blue fluorescence.
Tango™-EDG1 bla U2OS cells are cultivated in McCoy's 5A containing 10% dialyzed FBS, 0.1 mM NEAA, 25 mM HEPES, 1 mM sodium pyruvate, 1% Penicillin/Streptomycin, 200 μg/ml zeocin, 50 μg/ml hygromycin and 100 μg/ml geneticin (Invitrogen, USA). Cells are detached with trypsin, resuspended in medium and then counted.
Compounds (10 mM stock in DMSO) are diluted first in DMSO. The pre-diluted compounds solutions are then transferred into Assay Medium/0.1% fatty acid free BSA to reach a fourfold concentrated compound stock, which is applied to the cells to reach the final compound concentrations that range from 10 μM to 0.0005 nM (0.5% final DMSO). Cells are then incubated for 16 h at 37° C. and 5% CO2.

| EC50 [2] [nM] | SMILES | change in vivo at 10 mg/kg [1] [%] | change in vivo at 3 mg/kg ([1]; 6 h after an oral dose of 3 mg/kg) [%] |
| --- | --- | --- | --- |
| 0.1 | COc1cc(-c2nc(-c3cc(C)c(OCCNCCC(=O)O)c(Cl)c3)no2)cc(C2CCCC2)n1 [Example 43, 3-((2-(2-Chloro-4-(5-(2-cyclopentyl-6-methoxypyridin-4-yl)-1,2,4-oxadiazol-3-yl)-6-methylphenoxy)ethyl)amino)propanoic acid] | -62 | – |
| 0.659 | CCc1cc(-c2noc(-c3cc(OC)nc(C4CCCC4)c3)n2)cc(C)c1OCCCN(C)CCC(=O)O [Example 21, 3-((3-(4-(5-(2-Cyclopentyl-6-methoxypyridin-4-yl)-1,2,4-oxadiazol-3-yl)-2-ethyl-6-methylphenoxy)propyl)(methyl)amino)propanoic acid] | -74 | – |
| 0.1 | COc1cc(-c2nc(-c3cc(C)c(OCCN4CC(C(=O)O)C4)c(Cl)c3)no2)cc(C2CCCC2)n1 [Example 44, 1-(2-(2-Chloro-4-(5-(2-cyclopentyl-6-methoxypyridin-4-yl)-1,2,4-oxadiazol-3-yl)-6-methylphenoxy)ethyl)azetidine-3-carboxylic acid] | -62 | – |
| 0.3 | CCc1cc(-c2noc(-c3cc(OC)nc(C4CCCC4)c3)n2)cc(C)c1OC[C@@H](O)CN1CC(C(=O)O)C1 [Example 12, (S)-1-(3-(4-(5-(2-Cyclopentyl-6-methoxypyridin-4-yl)-1,2,4-oxadiazol-3-yl)-2-ethyl-6-methylphenoxy)-2-hydroxypropyl)azetidine-3-carboxylic acid] | -61 | – |
| 0.501 | CCc1cc(-c2noc(-c3cc(OC)nc(C4CCCC4)c3)n2)cc(C)c1OCCCN(C)C(=O)CC(=O)O [Example 33, 3-((3-(4-(5-(2-Cyclopentyl-6-methoxypyridin-4-yl)-1,2,4-oxadiazol-3-yl)-2-ethyl-6-methylphenoxy)propyl)(methyl)amino)-3-oxopropanoic acid] | -78 | – |
| 7.2 | CCc1cc(-c2nnc(-c3cc(OC)nc(C4CCCC4)c3)o2)cc(C)c1OCC(=O)O [Example 60, 2-(4-(5-(2-Cyclopentyl-6-methoxypyridin-4-yl)-1,3,4-oxadiazol-2-yl)-2-ethyl-6-methylphenoxy)acetic acid] | -35 | – |
| 0.2 | CCc1cc(-c2noc(-c3cc(OC)nc(C4CCCC4)c3)n2)cc(C)c1OC[C@@H](O)CN(C)CC(=O)O [Example 11, (S)-2-((3-(4-(5-(2-Cyclopentyl-6-methoxypyridin-4-yl)-1,2,4-oxadiazol-3-yl)-2-ethyl-6-methylphenoxy)-2-hydroxypropyl)(methyl)amino)acetic acid] | -60 | – |
| 0.06 | CCc1cc(-c2noc(-c3cc(OC)nc(C4CCCC4)c3)n2)cc(C)c1OC[C@@H](O)CNCCC(=O)O [Example 10] | -51 | – |
| 0.1 | CCc1cc(-c2noc(-c3cc(OC)nc(C4CCCC4)c3)n2)cc(C)c1OCCNCCCC(=O)O [Example 39, 4-((2-(4-(5-(2-Cyclopentyl-6-methoxypyridin-4-yl)-1,2,4-oxadiazol-3-yl)-2-ethyl-6-methylphenoxy)ethyl)amino)butanoic acid] | -66 | – |
| 0.265 | CCc1cc(-c2noc(-c3cc(OC)nc(C4CCCC4)c3)n2)cc(C)c1OCCCNC(=O)CO [Example 29, N-(3-(4-(5-(2-Cyclopentyl-6-methoxypyridin-4-yl)-1,2,4-oxadiazol-3-yl)-2-ethyl-6-methylphenoxy)propyl)-2-hydroxyacetamide] | -76 | – |
| 7.98 | CCc1cc(-c2noc(-c3cc(OC)nc(C4CCCC4)c3)n2)cc(C)c1OCCCN(C)C(=O)CO [Example 30, N-(3-(4-(5-(2-Cyclopentyl-6-methoxypyridin-4-yl)-1,2,4-oxadiazol-3-yl)-2-ethyl-6-methylphenoxy)propyl)-2-hydroxy-N-methylacetamide] | -75 | – |
| 1.2 | CCc1cc(-c2nc(-c3cc(OC)nc(C4CCCC4)c3)no2)cc(C)c1OCC(=O)O [Example 53, 2-(4-(3-(2-Cyclopentyl-6-methoxypyridin-4-yl)-1,2,4-oxadiazol-5-yl)-2-ethyl-6-methylphenoxy)acetic acid] | -72 | – |
| 0.07 | CCc1cc(-c2noc(-c3cc(OC)nc(C4CCCC4)c3)n2)cc(C)c1OC[C@@H](O)CNCC(=O)O [Example 9, (S)-2-((3-(4-(5-(2-Cyclopentyl-6-methoxypyridin-4-yl)-1,2,4-oxadiazol-3-yl)-2-ethyl-6-methylphenoxy)-2-hydroxypropyl)amino)acetic acid] | -72 | – |
| 0.2 | COc1cc(-c2nc(-c3cc(Cl)c(OCCNCCC(=O)O)c(OC)c3)no2)cc(C2CCCC2)n1 [Example 37, 3-((2-(2-Chloro-4-(5-(2-cyclopentyl-6-methoxypyridin-4-yl)-1,2,4-oxadiazol-3-yl)-6-methoxyphenoxy)ethyl)amino)propanoic acid] | -71 | – |
| 0.3 | CCc1cc(-c2noc(-c3cc(OC)nc(C4CCCC4)c3)n2)cc(C)c1OCCN1CCC(C(=O)O)C1 (racemic) [Example 8, rac-1-(2-(4-(5-(2-Cyclopentyl-6-methoxypyridin-4-yl)-1,2,4-oxadiazol-3-yl)-2-ethyl-6-methylphenoxy)ethyl)pyrrolidine-3-carboxylic acid] | -66 | – |
| 0.6 | COc1cc(-c2nc(-c3cc(Cl)c(OCCN4CC(C(=O)O)C4)c(OC)c3)no2)cc(C2CCCC2)n1 [Example 52, 1-(2-(2-Chloro-4-(5-(2-cyclopentyl-6-methoxypyridin-4-yl)-1,2,4-oxadiazol-3-yl)-6-methoxyphenoxy)ethyl)azetidine-3-carboxylic acid] | -71 | – |
| 0.05 | CCc1cc(-c2nc(-c3cc(OC)nc(C4CCCC4)c3)no2)cc(C)c1OCCNCCC(=O)O [Example 57, 3-((2-(4-(3-(2-Cyclopentyl-6-methoxypyridin-4-yl)-1,2,4-oxadiazol-5-yl)-2-ethyl-6-methylphenoxy)ethyl)amino)propanoic acid] | -74 | – |
| 0.2 | CCc1cc(-c2noc(-c3cc(OC)nc(C4CCCC4)c3)n2)cc(C)c1OCCN(C)CC(=O)O [Example 16, 2-((2-(4-(5-(2-Cyclopentyl-6-methoxypyridin-4-yl)-1,2,4-oxadiazol-3-yl)-2-ethyl-6-methylphenoxy)ethyl)(methyl)amino)acetic acid] | -75 | – |
| 0.515 | CCc1cc(-c2noc(-c3cc(OC)nc(C4CCCC4)c3)n2)cc(C)c1OCCCN(C)C(=O)CCC(=O)O [Example 34, 4-((3-(4-(5-(2-Cyclopentyl-6-methoxypyridin-4-yl)-1,2,4-oxadiazol-3-yl)-2-ethyl-6-methylphenoxy)propyl)(methyl)amino)-4-oxobutanoic acid] | -66 | – |
| 0.7 | COc1cc(-c2nc(-c3cc(Cl)c(OCCNCC(=O)O)c(OC)c3)no2)cc(C2CCCC2)n1 [Example 51, 2-((2-(2-Chloro-4-(5-(2-cyclopentyl-6-methoxypyridin-4-yl)-1,2,4-oxadiazol-3-yl)-6-methoxyphenoxy)ethyl)amino)acetic acid] | – | -22 |
| 0.1 | CCc1cc(-c2nnc(-c3cc(OC)nc(C4CCCC4)c3)o2)cc(C)c1OCCCC(=O)O [Example 61, 4-(4-(5-(2-Cyclopentyl-6-methoxypyridin-4-yl)-1,3,4-oxadiazol-2-yl)-2-ethyl-6-methylphenoxy)butanoic acid] | -27 | – |
| 0.2 | CCc1cc(-c2nnc(-c3cc(OC)nc(C4CCCC4)c3)o2)cc(C)c1OCCNCCC(=O)O [Example 62, 3-((2-(4-(5-(2-Cyclopentyl-6-methoxypyridin-4-yl)-1,3,4-oxadiazol-2-yl)-2-ethyl-6-methylphenoxy)ethyl)amino)propanoic acid] | -63 | – |
